Results taken from patent US7833985B2, “Angiotensin-converting enzyme inhibitory peptides” (Suntory Holdings Limited, priority 2003, dated 2010).

Target: T1, ACE from rabbit lung (Oryctolagus cuniculus, UniProt P12822)
T1 construct: ACE from rabbit lung (Sigma); purchased Sigma; host or cells: rabbit lung
T1 sequence (P12822 34-1310): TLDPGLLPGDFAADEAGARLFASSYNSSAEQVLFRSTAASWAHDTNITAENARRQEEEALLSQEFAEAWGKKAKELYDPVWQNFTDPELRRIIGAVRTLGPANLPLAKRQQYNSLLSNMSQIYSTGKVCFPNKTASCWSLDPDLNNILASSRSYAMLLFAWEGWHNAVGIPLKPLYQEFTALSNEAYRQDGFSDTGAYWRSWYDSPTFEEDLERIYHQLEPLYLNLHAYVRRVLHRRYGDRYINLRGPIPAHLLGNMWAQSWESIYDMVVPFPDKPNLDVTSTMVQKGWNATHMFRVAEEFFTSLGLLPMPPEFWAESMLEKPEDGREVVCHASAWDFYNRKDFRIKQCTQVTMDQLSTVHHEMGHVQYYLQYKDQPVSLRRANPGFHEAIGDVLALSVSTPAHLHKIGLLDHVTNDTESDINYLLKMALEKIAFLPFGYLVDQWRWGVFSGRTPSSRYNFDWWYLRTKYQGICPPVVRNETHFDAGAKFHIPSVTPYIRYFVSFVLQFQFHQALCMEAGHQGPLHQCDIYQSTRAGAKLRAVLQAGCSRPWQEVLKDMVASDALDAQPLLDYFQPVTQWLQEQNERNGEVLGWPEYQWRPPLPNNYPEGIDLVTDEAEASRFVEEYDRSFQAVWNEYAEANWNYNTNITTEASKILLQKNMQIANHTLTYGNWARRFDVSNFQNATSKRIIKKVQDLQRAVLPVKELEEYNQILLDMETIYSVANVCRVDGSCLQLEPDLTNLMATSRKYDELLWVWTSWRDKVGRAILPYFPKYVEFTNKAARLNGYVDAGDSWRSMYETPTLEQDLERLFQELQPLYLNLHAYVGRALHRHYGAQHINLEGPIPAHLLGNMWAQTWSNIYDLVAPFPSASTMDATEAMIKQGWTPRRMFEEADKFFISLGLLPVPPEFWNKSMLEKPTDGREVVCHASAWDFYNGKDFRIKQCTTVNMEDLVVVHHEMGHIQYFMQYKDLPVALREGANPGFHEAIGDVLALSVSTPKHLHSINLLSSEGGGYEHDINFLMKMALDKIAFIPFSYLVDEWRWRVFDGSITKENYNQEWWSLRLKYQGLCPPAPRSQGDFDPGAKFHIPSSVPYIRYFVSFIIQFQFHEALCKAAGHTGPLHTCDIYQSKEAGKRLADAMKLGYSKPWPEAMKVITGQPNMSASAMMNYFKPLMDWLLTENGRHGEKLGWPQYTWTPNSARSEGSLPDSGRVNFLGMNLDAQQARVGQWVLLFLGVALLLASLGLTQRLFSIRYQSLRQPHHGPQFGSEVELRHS
Experiment: ACE inhibitory activity (IC50), fluorometric Bz-Gly-His-Leu hydrolysis
Type: biochemical
Details: peptide purified from thermolysin digestion product of sesame protein; 5 μl portion of each fraction
Description: In the present invention, the ACE inhibitory activity (IC50) was measured in accordance with the following method.
5 μl of a sample containing the peptide of the invention was pipetted into a 96-well microplate. After adding 25 μl of the buffer and 10 μl of the enzyme, the mixture was thoroughly stirred and incubated at 37° C. for 5 minutes. After adding 10 μl of the substrate, the mixture was reacted at 37° C. for 30 minutes. Then the reaction was ceased by adding 40 μl of 0.1 N NaOH. […] Then the amount of His-Leu formed by the hydrolysis by ACE was determined by exciting (at 355 nm) the fluorescent substance formed by the reaction between the amino group in the histidine residue and o-phthalaldehyde and measuring the fluorescence wavelength at 460 nm. Then the percentage inhibition by the peptide of the invention was determined in accordance with the following equation and the ACE inhibitory activity (IC50) was calculated. Percentage inhibition={1−(A−a)/(B−b)}×100 • A: Measurement of fluorescence when the sample was added. • a: Measurement of fluorescence when the sample was added and the buffer was added as a substitute for the enzyme. • B: Measurement of fluorescence when distilled water was added as a substitute for the sample. • b: Measurement of fluorescence when distilled water was added as a substitute for the sample and the buffer was added as a substitute for the enzyme.

Ile-Val-Tyr
ACE inhibitory activity of the C30 HPLC fractions identified as the peptide: strong ACE inhibitory activities
